What was measured:
[1] = biological target: recombinant nNOS (Homo sapiens, UniProt P29475); details: recombinant nNOS and calcium dependent NOS activity in brain homogenates; from Osuka et al., 2001; cited from earlier work
[2] = test system: volume-regulated anion channels (VRACs); assay: Blockade of volume-regulated anion channels in vitro
[3] = test system: reversible MCAo; assay: Infarct volume by TTC staining after reversible MCAo (two hours of MCAo, then reperfusion); type: in vivo, rat; details: for Mean volume of the infarct: ±SEM, p<0.05
[4] = test system: permanent MCAo; assay: Infarct volume by TTC staining after permanent MCAo; type: in vivo, rat; details: 20 mg/kg, maintained by IP injections every 12 h
[5] = test system: EAA release; assay: Glutamate (EAA) release measured by microdialysis during and after ischemia (rMCAo); type: in vivo, rat; details: 5 mg/kg i.v. before rMCAO
[6] = test system: lipid peroxidation; assay: Lipid peroxidation in rat synaptosomal preparation (TBA-reactive substances); type: biochemical; details: initiated by 2.5 μM Fe2SO4 and 500 μM ascorbic acid; rat synaptosomes
Experimental: Lipid peroxides in sedimented synaptosomal membranes were analyzed by 2-thiobarbituric acid (TBA) with the TBA-reactive substances determined spectrophotometrically (Ohkawa et al., 1979). *P<0.05

[7] = test system: nitrotyrosine; assay: Nitrotyrosine production after rMCAo, Western blot of cerebral cortex extracts; type: in vivo, rat; details: 5 mg/kg; 68 kDa protein at 24 hours after rMCAo; P<0.05 compared to vehicle

Sequence of recombinant nNOS (P29475 whole entry, species assumed): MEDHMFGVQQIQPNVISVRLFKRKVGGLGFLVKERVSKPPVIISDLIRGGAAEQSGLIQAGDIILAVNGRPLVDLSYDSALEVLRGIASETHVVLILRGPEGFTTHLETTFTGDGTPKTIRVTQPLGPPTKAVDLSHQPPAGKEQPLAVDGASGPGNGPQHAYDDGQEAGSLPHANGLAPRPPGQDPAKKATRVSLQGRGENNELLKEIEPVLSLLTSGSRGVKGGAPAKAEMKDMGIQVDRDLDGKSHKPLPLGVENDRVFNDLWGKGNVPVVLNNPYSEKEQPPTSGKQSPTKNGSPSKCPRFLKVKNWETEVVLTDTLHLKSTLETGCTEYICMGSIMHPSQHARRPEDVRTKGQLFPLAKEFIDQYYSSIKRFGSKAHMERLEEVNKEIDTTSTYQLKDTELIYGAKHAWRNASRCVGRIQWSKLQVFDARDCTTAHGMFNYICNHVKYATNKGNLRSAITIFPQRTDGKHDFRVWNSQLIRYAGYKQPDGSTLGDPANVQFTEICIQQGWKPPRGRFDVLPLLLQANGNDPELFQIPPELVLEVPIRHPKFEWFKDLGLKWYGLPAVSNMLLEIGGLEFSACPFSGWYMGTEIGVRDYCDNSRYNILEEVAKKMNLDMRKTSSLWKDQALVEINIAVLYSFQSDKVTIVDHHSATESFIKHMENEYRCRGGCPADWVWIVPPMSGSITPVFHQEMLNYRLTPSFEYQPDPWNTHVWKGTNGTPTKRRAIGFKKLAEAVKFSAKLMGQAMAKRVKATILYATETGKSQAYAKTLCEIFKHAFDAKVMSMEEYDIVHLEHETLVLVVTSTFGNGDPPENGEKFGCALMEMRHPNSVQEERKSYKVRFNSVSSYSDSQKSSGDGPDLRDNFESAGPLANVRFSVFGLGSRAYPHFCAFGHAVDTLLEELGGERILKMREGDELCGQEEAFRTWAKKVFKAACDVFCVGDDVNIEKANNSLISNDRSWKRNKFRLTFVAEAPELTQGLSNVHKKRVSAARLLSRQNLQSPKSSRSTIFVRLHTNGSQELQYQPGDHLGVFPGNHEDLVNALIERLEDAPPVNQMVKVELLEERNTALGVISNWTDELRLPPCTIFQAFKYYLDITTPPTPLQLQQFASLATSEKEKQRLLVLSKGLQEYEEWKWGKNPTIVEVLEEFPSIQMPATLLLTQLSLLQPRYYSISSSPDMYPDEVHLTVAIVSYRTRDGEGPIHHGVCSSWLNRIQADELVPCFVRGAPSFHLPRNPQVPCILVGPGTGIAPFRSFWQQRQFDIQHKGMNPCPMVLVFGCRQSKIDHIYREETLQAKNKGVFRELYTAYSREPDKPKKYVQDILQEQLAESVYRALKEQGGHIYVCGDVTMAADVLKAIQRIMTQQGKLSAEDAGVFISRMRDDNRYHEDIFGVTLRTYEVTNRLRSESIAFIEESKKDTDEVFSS

In the case of `CCC(=C(c1ccccc1)c1ccc(OCCN(C)C)cc1)c1ccccc1` (stereo in doubt) [tamoxifen, (Z)-2-[4-(1,2-diphenyl-1-butenyl)phenoxy]-N,N-dimethylethanamine], the nNOS activity [1] is listed as “inhibits nNOS”, the VRAC blockade [2] is listed as “potently blocks VRACs” and the Infarct size ([3]; tamoxifen at two and four hours after the infarct, reperfusion) is listed as “essentially identical to the mean for untreated control animals”. The “Mean volume of the infarct” value ([3]; tamoxifen given 1 hour after reperfusing after two hours of MCAo, TTC staining 72 h) was 33±13 mm^3, the “Mean volume of the infarct” value ([3]; tamoxifen pretreatment, TTC staining 72 h after MCAo) was 41±21 mm^3 and the Infarct volume [4] was “reduces infarct volumes”. The Contralateral glutamate levels [5] was “no effect”, the “EAA (glutamate) release during ischemia” value [5] was “reduces EAA release” and the Lipid peroxidation [6] was “inhibits lipid peroxidation”. For the same compound, the “Nitrotyrosine levels after rMCAo” value [7] was “reduces nitrotyrosine levels”.

Source: patent publication US20030032676A1, “Drugs for treatment of cerebral injury and methods of use thereof” (priority 2001, published 2003)
